These results are taken from publication PMC7886321, “Deciphering the LRRK code: LRRK1 and LRRK2 phosphorylate distinct Rab proteins and are regulated by diverse mechanisms” (Biochemical Journal, 2021).

One assay concerns the target T1, LRRK1 (Homo sapiens, UniProt Q38SD2).
T1 construct: recombinant LRRK1, residues 28 to 2015
The assay can be described thus: in vitro kinase assay, Rab7A Ser72 phosphorylation by immunoblot, […] ATP. The format is biochemical.

The target in the next assay is T2, LRRK2 (Homo sapiens, UniProt Q5S007).
T2 construct: wild type LRRK2 overexpressed in HEK293 cells
T2 sequence (Q5S007 whole entry): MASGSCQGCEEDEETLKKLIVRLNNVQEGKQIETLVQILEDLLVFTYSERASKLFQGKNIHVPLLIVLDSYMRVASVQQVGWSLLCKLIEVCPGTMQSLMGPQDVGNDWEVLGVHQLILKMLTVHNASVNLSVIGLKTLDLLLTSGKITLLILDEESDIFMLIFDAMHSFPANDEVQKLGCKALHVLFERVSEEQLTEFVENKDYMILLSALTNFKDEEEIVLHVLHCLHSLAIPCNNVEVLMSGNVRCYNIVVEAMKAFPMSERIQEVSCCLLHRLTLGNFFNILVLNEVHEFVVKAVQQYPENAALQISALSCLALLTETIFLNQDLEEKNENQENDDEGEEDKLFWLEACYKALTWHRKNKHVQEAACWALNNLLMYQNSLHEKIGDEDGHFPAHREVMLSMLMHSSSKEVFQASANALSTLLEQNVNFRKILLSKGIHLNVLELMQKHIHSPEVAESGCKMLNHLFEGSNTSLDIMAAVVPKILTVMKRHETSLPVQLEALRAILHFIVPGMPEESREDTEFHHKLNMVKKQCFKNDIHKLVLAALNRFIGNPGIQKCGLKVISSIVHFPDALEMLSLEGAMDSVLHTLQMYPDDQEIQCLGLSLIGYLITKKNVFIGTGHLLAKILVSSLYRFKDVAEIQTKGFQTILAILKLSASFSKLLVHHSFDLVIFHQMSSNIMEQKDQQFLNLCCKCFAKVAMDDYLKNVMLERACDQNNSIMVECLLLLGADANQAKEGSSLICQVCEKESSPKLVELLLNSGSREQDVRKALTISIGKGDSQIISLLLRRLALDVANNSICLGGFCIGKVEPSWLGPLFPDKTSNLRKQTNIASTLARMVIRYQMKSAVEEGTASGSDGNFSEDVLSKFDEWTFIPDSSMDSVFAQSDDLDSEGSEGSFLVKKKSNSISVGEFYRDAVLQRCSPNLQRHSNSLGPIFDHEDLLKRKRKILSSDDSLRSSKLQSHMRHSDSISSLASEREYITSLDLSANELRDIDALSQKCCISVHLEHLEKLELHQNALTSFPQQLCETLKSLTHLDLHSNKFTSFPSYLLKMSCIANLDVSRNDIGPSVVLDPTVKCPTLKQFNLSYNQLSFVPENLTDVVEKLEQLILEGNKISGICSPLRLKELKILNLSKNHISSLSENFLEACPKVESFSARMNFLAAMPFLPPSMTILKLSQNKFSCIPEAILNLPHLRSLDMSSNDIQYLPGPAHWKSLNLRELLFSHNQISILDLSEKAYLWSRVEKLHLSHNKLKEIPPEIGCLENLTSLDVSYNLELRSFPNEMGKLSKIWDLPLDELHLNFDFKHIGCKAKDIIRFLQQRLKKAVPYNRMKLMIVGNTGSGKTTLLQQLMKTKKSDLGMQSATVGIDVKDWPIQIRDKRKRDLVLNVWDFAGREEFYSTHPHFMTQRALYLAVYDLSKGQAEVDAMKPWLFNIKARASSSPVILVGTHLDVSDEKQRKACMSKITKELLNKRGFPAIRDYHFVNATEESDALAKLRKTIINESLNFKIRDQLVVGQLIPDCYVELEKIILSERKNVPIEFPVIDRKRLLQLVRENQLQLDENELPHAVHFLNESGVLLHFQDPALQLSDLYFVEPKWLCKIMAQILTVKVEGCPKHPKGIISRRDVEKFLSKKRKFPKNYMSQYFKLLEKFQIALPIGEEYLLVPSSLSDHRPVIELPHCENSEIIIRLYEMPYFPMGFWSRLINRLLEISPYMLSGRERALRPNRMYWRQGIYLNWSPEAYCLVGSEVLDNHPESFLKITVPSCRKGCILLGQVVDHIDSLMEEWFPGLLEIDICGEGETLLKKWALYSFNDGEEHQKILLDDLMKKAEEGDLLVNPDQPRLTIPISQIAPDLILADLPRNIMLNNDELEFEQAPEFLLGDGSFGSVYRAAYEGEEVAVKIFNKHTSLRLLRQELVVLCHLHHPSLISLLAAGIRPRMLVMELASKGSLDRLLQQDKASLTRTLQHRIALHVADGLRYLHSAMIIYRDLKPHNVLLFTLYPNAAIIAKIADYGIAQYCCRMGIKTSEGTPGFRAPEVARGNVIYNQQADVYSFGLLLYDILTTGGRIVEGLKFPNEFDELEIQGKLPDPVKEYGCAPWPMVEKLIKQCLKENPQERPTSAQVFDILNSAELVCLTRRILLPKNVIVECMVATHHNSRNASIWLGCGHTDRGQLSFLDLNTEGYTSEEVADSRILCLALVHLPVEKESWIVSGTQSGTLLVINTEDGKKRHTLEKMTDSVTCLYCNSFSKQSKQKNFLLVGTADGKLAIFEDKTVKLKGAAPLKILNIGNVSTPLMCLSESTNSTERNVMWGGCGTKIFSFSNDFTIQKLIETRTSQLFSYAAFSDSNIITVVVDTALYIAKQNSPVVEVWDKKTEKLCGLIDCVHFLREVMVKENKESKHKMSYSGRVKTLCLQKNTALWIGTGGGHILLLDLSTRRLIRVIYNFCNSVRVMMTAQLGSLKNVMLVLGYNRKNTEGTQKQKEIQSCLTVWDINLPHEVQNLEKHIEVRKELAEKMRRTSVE
As to the kind of experiment: HEK293 overexpression, pRab10 Thr73 and pSer935 LRRK2 immunoblot. The format is cell-based.

T1 sequence (Q38SD2 28-2015): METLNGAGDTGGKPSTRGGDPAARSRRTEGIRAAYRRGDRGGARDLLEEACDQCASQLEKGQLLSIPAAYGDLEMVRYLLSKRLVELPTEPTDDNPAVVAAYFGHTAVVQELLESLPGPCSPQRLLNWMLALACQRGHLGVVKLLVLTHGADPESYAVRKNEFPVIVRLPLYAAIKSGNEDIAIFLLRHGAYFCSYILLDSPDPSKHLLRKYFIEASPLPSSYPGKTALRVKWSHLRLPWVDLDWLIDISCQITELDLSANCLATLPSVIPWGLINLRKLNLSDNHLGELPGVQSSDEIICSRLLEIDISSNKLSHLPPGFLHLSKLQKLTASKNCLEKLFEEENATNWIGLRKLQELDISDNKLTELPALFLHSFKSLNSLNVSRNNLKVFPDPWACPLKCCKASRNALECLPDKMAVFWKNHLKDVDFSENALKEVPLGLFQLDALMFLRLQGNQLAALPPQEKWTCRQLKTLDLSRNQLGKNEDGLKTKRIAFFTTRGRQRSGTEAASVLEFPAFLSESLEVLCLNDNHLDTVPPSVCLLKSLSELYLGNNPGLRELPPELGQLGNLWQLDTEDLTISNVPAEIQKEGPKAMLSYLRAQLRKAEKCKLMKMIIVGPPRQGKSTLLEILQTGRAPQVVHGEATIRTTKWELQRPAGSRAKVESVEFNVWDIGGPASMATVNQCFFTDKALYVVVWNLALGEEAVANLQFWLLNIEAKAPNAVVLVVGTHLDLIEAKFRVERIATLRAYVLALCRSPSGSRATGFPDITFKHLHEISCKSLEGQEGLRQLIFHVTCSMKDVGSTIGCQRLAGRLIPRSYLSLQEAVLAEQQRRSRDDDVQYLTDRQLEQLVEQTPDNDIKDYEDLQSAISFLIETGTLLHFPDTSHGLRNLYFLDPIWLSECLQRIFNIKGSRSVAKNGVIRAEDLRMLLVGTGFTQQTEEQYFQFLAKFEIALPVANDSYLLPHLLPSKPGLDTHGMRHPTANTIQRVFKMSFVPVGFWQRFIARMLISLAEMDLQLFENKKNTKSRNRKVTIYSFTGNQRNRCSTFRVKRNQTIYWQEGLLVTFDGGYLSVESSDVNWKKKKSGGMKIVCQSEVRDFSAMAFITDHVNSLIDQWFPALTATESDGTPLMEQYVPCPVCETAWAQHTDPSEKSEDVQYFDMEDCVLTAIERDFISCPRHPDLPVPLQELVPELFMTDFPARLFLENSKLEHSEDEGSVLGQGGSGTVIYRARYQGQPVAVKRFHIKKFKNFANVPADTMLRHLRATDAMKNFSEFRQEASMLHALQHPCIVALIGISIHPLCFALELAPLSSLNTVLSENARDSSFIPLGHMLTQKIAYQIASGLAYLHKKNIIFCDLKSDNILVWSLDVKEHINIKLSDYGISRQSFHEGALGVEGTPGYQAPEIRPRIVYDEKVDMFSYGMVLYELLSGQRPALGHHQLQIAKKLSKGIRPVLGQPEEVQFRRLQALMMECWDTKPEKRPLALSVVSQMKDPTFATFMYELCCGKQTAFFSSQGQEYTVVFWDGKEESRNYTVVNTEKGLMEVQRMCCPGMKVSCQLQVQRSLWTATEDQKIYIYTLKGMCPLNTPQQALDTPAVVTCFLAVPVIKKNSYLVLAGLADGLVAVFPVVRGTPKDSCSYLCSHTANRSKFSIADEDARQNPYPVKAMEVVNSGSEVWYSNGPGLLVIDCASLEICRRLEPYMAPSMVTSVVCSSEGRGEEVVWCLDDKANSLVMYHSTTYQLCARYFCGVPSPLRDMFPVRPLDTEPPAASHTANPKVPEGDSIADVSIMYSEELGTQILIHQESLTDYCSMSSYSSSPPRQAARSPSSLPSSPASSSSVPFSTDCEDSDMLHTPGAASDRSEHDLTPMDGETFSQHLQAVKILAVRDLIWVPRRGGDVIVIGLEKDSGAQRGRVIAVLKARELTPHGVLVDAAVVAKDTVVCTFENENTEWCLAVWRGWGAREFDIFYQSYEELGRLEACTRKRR

`Cc1ccc(C(=O)Nc2ccc(CN3CCN(C)CC3)c(C(F)(F)F)c2)cc1C#Cc1cnc2[nH]ncc2c1` [GZD-824] came in with an IC50 against LRRK1 of roughly 20 nM.
`COc1cc(C(=O)N2CCC(N3CCN(C)CC3)CC2)ccc1Nc1ncc2c(n1)N(C)c1ccccc1C(=O)N2C` [LRRK2-IN1]: the “HEK293 overexpression, pRab10 Thr73 and pSer935 LRRK2 immunoblot” value on LRRK2 was “All inhibitors ablated LRRK2-mediated phosphorylation of Rab10 at Thr73 and LRRK2 at Ser935 in parallel experiments”.
On to `O=C(Nc1cccnc1)c1cc(-c2ccnc(F)c2)ccc1OCc1ccccc1` [GSK2578215A], for which the “HEK293 overexpression, pRab10 Thr73 and pSer935 LRRK2 immunoblot” value on LRRK2 is “All inhibitors ablated LRRK2-mediated phosphorylation of Rab10 at Thr73 and LRRK2 at Ser935 in parallel experiments”.
